The target in assay [1] is PARP1 (Homo sapiens, UniProt P09874). The experiment in a line: Inhibition of PARP1 enzyme activity (ELISA, chemiluminescence). The class given is biochemical. The following applies: for IC50: ELISA, histone-coated plate, NAD+, 60 min at 25 °C; for Selectivity PARP2/PARP1: ratio of PARP2 IC50 to PARP1 IC50. A general note: An ELISA detects its analyte on a solid surface through an enzyme-linked reagent.

For assay [2], the target named is PARP2 (Homo sapiens, UniProt Q9UGN5). In words: biochemical.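 Further: PARP2 enzyme ELISA on histone-coated plates, Strep-HRP detection with chemiluminescence read-out, 10 min compound preincubation with enzyme, inhibition scaled between Max and Min signal controls.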
Description: Experimental Objective: To evaluate the inhibitory effect of the compounds of the present invention on the enzyme activities of PARP1 and PARP2 using ELISA.
• 1. histone-coated 384-well plates was prepared: 25 µL of histone solution was added to each well and incubated overnight at 4 °C. • 2. PBST buffer, blocking buffer (PBS buffer with 5% BSA and 0.05% Tween-20 added) and detection buffer (20 mM HEPES pH 7.5 + 100 mM NaCl + 2 mM DTT + 0.002% Tween-20 + 0.1% BSA) were prepared. • 3. The histone-coated 3 84-well plate was washed three times with PBST buffer, blocked at room temperature with 50 µL blocking buffer for 1 hour, and then washed three times with PBST buffer. • 4. Test compounds were prepared as 2000-fold stock solutions in DMSO. 50 nL of the stock solution was mixed with 19.95 µL detection buffer, and 5 µL of the gradient-diluted test compound was transferred to each well. • 5. Enzymatic reaction (PARP1): PARP1 & DNA mix was pre-incubated at 25 °C for 10 minutes. 10 µL of the PARP1 & DNA mix was added to each well and incubated with the test compound at room temperature for 10 minutes. […] Finally, the 384-well plate was washed three times with PBST buffer. Enzymatic reaction (PARP2): PARP2 was pre-incubated at 25 °C for 10 minutes. 10 µL of PARP2 was added to each well and incubated with the test compound at room temperature for 10 minutes. […] Finally, the 384-well plate was washed three times with PBST buffer. • 6. Detection (PARP1): 20 µL of anti-Poly/Mono-ADP Ribose Rabbit mAb was added and incubated at room temperature for 1.5 hours, followed by three washes of the 384-well plate with PBST buffer. Then, 20 µL of diluted anti-rabbit IgG, HRP-linked Antibody (diluted 1:2000 in blocking buffer) was added and incubated at room temperature for 1 hour. After washing the plate three times with PBST buffer, 25 µL of a 1:1 mixture of Femto-ECL Substrate A and Femto-ECL Substrate B was added. Detection (PARP2): 25 µL of Strep-HRP was added and incubated at room temperature for 1 hour, followed by three washes of the 384-well plate with PBS buffer. Then, 25 µL of a 1:1 mixture of Femto-ECL Substrate A and Femto-ECL Substrate B was added. • 7. Chemiluminescence intensity was measured using an Envision multimode microplate reader. • 8. Data Processing
The inhibition rate was calculated in Excel using formula (1). inh% = (Max−Signal)/(Max−Min)*100 [formula]
The IC50 value was obtained by fitting the data in XL-Fit using formula (2). Y = bottom + (top−bottom)/(1+(IC50/X)*HillSlope); [formula] wherein Y is the inhibition percentage and X is the compound concentration.

As usually defined, the IC50 is the concentration at which inhibition is half-maximal.

PARP2, sequence (Q9UGN5 whole entry): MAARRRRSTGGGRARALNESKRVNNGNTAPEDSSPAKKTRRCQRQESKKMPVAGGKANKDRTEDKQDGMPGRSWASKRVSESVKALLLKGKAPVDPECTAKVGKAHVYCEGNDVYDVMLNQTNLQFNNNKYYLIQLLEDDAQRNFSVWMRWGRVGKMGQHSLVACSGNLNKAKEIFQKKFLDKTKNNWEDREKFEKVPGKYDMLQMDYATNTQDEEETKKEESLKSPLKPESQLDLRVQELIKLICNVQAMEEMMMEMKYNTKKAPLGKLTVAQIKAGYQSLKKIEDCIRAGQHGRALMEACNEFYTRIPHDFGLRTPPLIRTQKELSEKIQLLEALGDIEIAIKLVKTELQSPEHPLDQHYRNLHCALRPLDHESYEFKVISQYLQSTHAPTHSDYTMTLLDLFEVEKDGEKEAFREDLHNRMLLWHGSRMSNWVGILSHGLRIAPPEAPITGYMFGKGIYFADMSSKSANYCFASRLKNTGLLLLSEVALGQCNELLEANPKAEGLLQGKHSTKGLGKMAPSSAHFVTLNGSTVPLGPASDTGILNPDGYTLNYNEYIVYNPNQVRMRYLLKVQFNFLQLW
PARP1, sequence (P09874 whole entry): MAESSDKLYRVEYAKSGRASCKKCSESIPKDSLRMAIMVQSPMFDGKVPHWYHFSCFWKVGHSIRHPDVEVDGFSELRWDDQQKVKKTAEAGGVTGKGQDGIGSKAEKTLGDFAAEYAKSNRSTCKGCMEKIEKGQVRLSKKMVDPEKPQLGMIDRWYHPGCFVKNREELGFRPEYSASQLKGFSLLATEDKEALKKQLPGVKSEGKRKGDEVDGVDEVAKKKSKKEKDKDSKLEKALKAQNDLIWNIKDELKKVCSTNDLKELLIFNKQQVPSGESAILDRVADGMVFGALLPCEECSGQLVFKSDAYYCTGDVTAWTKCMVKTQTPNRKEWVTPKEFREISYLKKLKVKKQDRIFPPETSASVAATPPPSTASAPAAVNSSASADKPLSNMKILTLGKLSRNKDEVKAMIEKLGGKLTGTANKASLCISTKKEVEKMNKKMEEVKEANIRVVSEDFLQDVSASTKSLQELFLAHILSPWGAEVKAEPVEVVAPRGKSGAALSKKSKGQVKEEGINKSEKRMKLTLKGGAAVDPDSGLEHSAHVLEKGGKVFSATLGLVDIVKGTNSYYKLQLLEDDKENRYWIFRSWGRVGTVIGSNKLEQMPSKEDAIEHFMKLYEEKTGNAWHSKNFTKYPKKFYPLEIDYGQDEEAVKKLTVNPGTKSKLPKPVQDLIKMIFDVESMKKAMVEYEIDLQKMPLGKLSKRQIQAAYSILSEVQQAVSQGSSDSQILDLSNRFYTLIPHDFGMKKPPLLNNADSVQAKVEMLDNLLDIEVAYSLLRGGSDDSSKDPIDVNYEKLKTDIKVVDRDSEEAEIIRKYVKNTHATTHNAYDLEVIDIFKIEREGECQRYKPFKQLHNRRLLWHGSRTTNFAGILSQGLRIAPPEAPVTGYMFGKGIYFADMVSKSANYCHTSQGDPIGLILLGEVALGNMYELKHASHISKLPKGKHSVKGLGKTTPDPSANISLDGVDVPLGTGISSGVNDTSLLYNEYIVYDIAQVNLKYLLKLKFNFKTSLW

Take `CNC(=O)c1ccc(N2CCN(Cc3cc(Oc4ccccc4F)c4nc(C)c(=O)[nH]c4c3)CC2)c(F)n1` [Example 27, 6-fluoro-5-(4-((8-(2-fluorophenoxy)-2-methyl-3-oxo-3,4-dihydroquinoxalin-6-yl)methyl)piperazin-1-yl)-N-methylpicolinamide]: in assay [1], the IC50 was 2.2 nM and the “Selectivity PARP2/PARP1” value turned out to be 278.9. Besides, half-maximal inhibition in assay [2] (IC50) required 626 nM.
Take `CC#Cc1cc(CN2CC=C(c3ccc(C(=O)NC)nc3)CC2)cc2[nH]c(=O)c(C)nc12` [Example 51, N-methyl-1'-((2-methyl-3-oxo-8-(prop-1-yn-1-yl)-3,4-dihydroquinoxalin-6-yl)methyl)-1',2',3',6'-tetrahydro-[3,4'-bipyridine]-6-carboxamide]: in assay [1], half-maximal inhibition (IC50) required 7.2 nM and the “Selectivity PARP2/PARP1” value is 198.0. 1420 nM corresponded to half-maximal inhibition in assay [2] (IC50).
Regarding `CNC(=O)c1ccc(N2CCN(Cc3cc(Oc4cccc(F)c4)c4nc(C)c(=O)[nH]c4c3)CC2)c(F)n1` [Example 28, 6-fluoro-5-(4-((8-(3-fluorophenoxy)-2-methyl-3-oxo-3,4-dihydroquinoxalin-6-yl)methyl)piperazin-1-yl)-N-methylpicolinamide], in assay [1], half-maximal inhibition (IC50) required 1.8 nM and the “Selectivity PARP2/PARP1” value is 356.3. The compound also registered an IC50 in assay [2] of 654 nM.
For the compound `CNC(=O)c1ccc(C2=CCN(Cc3cc(OC(F)F)c4nc(C)c(=O)[nH]c4c3F)CC2)c(C)n1` [Example 62, 1'-((8-(difluoromethoxy)-5-fluoro-2-methyl-3-oxo-3,4-dihydroquinoxalin-6-yl)methyl)-N,2-dimethyl-1',2',3',6'-tetrahydro-[3,4'-bipyridine]-6-carboxamide], in assay [1], half-maximal inhibition (IC50) was put at 6.4 nM and the “Selectivity PARP2/PARP1” value is recorded as more than 1554. For the same compound, in assay [2], the IC50 is more than 10000 nM.
For `CC#Cc1cc(CN2CC=C(c3ccc(C(=O)NC)nc3F)CC2)c(F)c2[nH]c(=O)c(C)nc12` [Example 23, 2-fluoro-1'-((5-fluoro-2-methyl-3-oxo-8-(prop-1-yn-1-yl)-3,4-dihydroquinoxalin-6-yl)methyl)-N-methyl-1',2',3',6'-tetrahydro-[3,4'-bipyridine]-6-carboxamide], in assay [1], half-maximal inhibition (IC50) was put at 2.4 nM and the “Selectivity PARP2/PARP1” value came out at 4113.1. The compound also came in with an IC50 in assay [2] of more than 10000 nM.
In the same order, the values of `CNC(=O)c1ccc(N2CCN(Cc3cc(C4CCCC4)c4nc(C)c(=O)[nH]c4c3)CC2)c(F)n1` [Example 31, 5-(4-((8-cyclopentyl-2-methyl-3-oxo-3,4-dihydroquinoxalin-6-yl)methyl)piperazin-1-yl)-6-fluoro-N-methylpicolinamide] are 2.5 nM, 18.4 and 45.4 nM.
Regarding `CC#Cc1cc(CN2CC=C(c3ccc(C(=O)NC)nc3)CC2)c(F)c2[nH]c(=O)c(C)nc12` [Example 50, 1'-((5-fluoro-2-methyl-3-oxo-8-(prop-1-yn-1-yl)-3,4-dihydroquinoxalin-6-yl)methyl)-N-methyl-1',2',3',6'-tetrahydro-[3,4'-bipyridine]-6-carboxamide], in assay [1], the IC50 came out at 3.3 nM and the “Selectivity PARP2/PARP1” value was more than 3042. For the same compound, the IC50 in assay [2] was more than 10000 nM.
Regarding `CC#Cc1cc(CN2CC=C(c3ccc(C(=O)NC4CC4)nc3)CC2)c(F)c2[nH]c(=O)c(C)nc12` [Example 67, N-cyclopropyl-1'-((5-fluoro-2-methyl-3-oxo-8-(prop-1-yn-1-yl)-3,4-dihydroquinoxalin-6-yl)methyl)-1',2',3',6'-tetrahydro-[3,4'-bipyridine]-6-carboxamide], in assay [1], it took 6.9 nM to reach half-maximal inhibition (IC50) and the “Selectivity PARP2/PARP1” value is given as more than 1444. Besides, the IC50 in assay [2] is more than 10000 nM.
With `CNC(=O)c1ccc(N2CCN(Cc3cc(Oc4ccncc4)c4nc(C)c(=O)[nH]c4c3)CC2)c(F)n1` [Example 29, 6-fluoro-N-methyl-5-(4-((2-methyl-3-oxo-8-(pyridin-4-yloxy)-3,4-dihydroquinoxalin-6-yl)methyl)piperazin-1-yl)picolinamide], in assay [1], 11.5 nM corresponded to half-maximal inhibition (IC50) and the “Selectivity PARP2/PARP1” value is given as 217.3. The compound also returned an IC50 in assay [2] of 2500 nM.
